Assay results taken from patent US4950662A, “2-oxa-isocephem compounds, compositions containing the same and processes for preparing the same” (Otsuka Pharmaceutical Co., Ltd., priority 1987, dated 1990).
≈ marks a conversion by molar mass, not a printed value. Read-outs that look alike come from different tables or passages of the source.

Legend:
E. coli NIHJ = assay: MIC by agar plate dilution method, E. coli NIHJ; assay type: cell-based; conditions: Escherichia coli, inoculum 1 x 10^6 cells/ml
Procedure: (§1) In order to investigate the in vitro activity of the under-mentioned compounds against various bacteria, the minimal inhibitory concentration (MIC) values were determined by the agar plate dilution method [see Chemotherapy, 22, 1123-1128 (1974)].
(§2) Each test inoculum was adjusted to I x 10^6 cells/ml (O.D., 600m : 0.07-0.16).

K. pneumoniae NCTC-9632 = assay: MIC by agar plate dilution method, K. pneumoniae NCTC-9632; assay type: cell-based; conditions: Klebsiella pneumoniae, NCTC9632
Procedure: as §1, §2

E. coli No. 29 = assay: MIC by agar plate dilution method, E. coli No. 29; assay type: cell-based; conditions: Escherichia coli, inoculum 1 x 10^6 cells/ml
Procedure: as §1, §2

P. mirabilis ATCC-29906 = assay: MIC by agar plate dilution method, P. mirabilis ATCC-29906; assay type: cell-based; conditions: Proteus mirabilis, ATCC29906, inoculum 1 x 10^6 cells/ml
Procedure: as §1, §2

M. morganii IIDKono = assay: MIC by agar plate dilution method, M. morganii IIDKono; assay type: cell-based; conditions: Morganella morganii
Procedure: as §1, §2

S. aureus FDA-209-p = assay: MIC by agar plate dilution method, S. aureus FDA-209-p; assay type: cell-based, Staphyloccocus aureus; conditions: Staphylococcus aureus, FDA209, inoculum 1 x 10^6 cells/ml
Procedure: as §1, §2

S. marcescens ATCC-13880 = assay: MIC by agar plate dilution method, S. marcescens ATCC-13880; assay type: cell-based; conditions: Serratia marcescens, ATCC13880, inoculum 1 x 10^6 cells/ml
Procedure: as §1, §2

P. aeruginosa NCTC-10490 = assay: MIC by agar plate dilution method, P. aeruginosa NCTC-10490; assay type: cell-based; conditions: Pseudomonas aeruginosa, NCTC10490, inoculum 1 x 10^6 cells/ml
Procedure: as §1, §2

P. mirabilis 1287 = assay: MIC by agar plate dilution method, P. mirabilis 1287; assay type: cell-based; conditions: Proteus mirabilis, inoculum 1 x 10^6 cells/ml
Procedure: as §1, §2

S. marcescens IFO-12648 = assay: MIC by agar plate dilution method, S. marcescens IFO-12648; assay type: cell-based; conditions: Serratia marcescens, IFO12648, inoculum 1 x 10^6 cells/ml
Procedure: as §1, §2

M. morganii ATCC-25830 = assay: MIC by agar plate dilution method, M. morganii ATCC-25830; assay type: cell-based; conditions: Morganella morganii, ATCC25830
Procedure: as §1, §2

[1] = K. pneumoniae NCTC-9632, inoculum 1 x 10^6 cells/ml, read-out: MIC
[2] = M. morganii IIDKono, inoculum 1 x 10^6 cells/ml, read-out: MIC
[3] = M. morganii ATCC-25830, inoculum 1 x 10^6 cells/ml, read-out: MIC

Row | Compound | MIC (E. coli NIHJ) [µg/mL] | MIC (K. pneumoniae NCTC-9632) [µg/mL] | MIC (E. coli No. 29) [µg/mL] | MIC (P. mirabilis ATCC-29906) [µg/mL] | MIC (M. morganii IIDKono) [µg/mL] | MIC (S. aureus FDA-209-p) [µg/mL] | MIC (S. marcescens ATCC-13880) [µg/mL] | MIC (K. pneumoniae NCTC-9632; [1]) [µg/mL] | MIC (M. morganii IIDKono; [2]) [µg/mL] | MIC (P. aeruginosa NCTC-10490) [µg/mL] | MIC (P. mirabilis 1287) [µg/mL] | MIC (S. marcescens IFO-12648) [µg/mL] | MIC (M. morganii ATCC-25830; [3]) [µg/mL] | MIC (M. morganii ATCC-25830) [µg/mL]
1 | CO/N=C(\C(=O)N[C@@H]1C(=O)N2C(C(=O)[O-])=C(C[n+]3ccccc3)OC[C@H]12)c1csc(N)n1 [No. 5, (6S,7S)-7-[2-(2-aminothiazol-4-yl)-2-methoxyiminoacetamide]-3-[(1-pyridinio)methyl]-Δ^3-0-2-isocephem-4-carboxylate (syn isomer)] | 0.05 (≈ 0.109 µM) | 0.05 (≈ 0.109 µM) | 0.05 (≈ 0.109 µM) | 0.1 (≈ 0.218 µM) | 0.05 (≈ 0.109 µM) | 0.39 (≈ 0.851 µM) | 0.1 (≈ 0.218 µM) | – | – | – | – | – | – | –
2 | CO/N=C(\C(=O)N[C@@H]1C(=O)N2C(C(=O)[O-])=C(C[n+]3ccc(-c4cc[nH]n4)cc3)OC[C@H]12)c1csc(N)n1 [No. 7, (6S,7S}-7-[2-[2-aminothiazol-4-Yl}-2-methoxyiminoacetamide]-3-[[4-(3-pyrazolyl)-1-pyridinio]methyl]-Δ^3-0-2-isocephem-4-carboxylate (syn isomer)] | ≤ 0.025 | – | ≤ 0.025 | ≤ 0.025 | – | 0.2 (≈ 0.381 µM) | 0.1 (≈ 0.191 µM) | ≤ 0.025 | ≤ 0.025 | – | – | – | – | –
3 | CO/N=C(\C(=O)N[C@@H]1C(=O)N2C(C(=O)[O-])=C(C[N+]3(C)CCc4ccccc4C3)OC[C@H]12)c1csc(N)n1 (stereo partly drawn) [No. 4, (6S,7S)-7-[2-(2-aminothiazol-4-Yl)-2-methoxyiminoacetamide]3-(2-methyl-2-1,2,3,4-tetrahydroisoquinoline-2-yl)methyl-Δ^3-0-2-isocephem-4-carboxylate (syn isomer)] | 0.1 (≈ 0.19 µM) | – | 0.05 (≈ 0.095 µM) | 0.2 (≈ 0.38 µM) | – | 0.78 (≈ 1.48 µM) | 0.2 (≈ 0.38 µM) | 0.2 (≈ 0.38 µM) | 0.1 (≈ 0.19 µM) | – | – | – | – | –
4 | CC(C)O/N=C(\C(=O)N[C@@H]1C(=O)N2C(C(=O)[O-])=C(C[N+]3(C)CCCC3)OC[C@H]12)c1csc(N)n1 [No. 10, (6S,7S)-7-[2-(2-aminothiazol-4-yl)-2-(3-isopropyloxyiminoacetamide]-3-(1-methyl-1pyrrolidinio)methyl-^66 ^3-0-2-isocephem-4-carboxylate (syn isomer)] | 0.1 (≈ 0.203 µM) | – | 0.1 (≈ 0.203 µM) | – | – | 0.2 (≈ 0.406 µM) | – | 0.05 (≈ 0.102 µM) | – | 12.5 (≈ 25.4 µM) | 0.1 (≈ 0.203 µM) | 0.39 (≈ 0.792 µM) | 0.1 (≈ 0.203 µM) | –
5 | CO/N=C(\C(=O)N[C@@H]1C(=O)N2C(C(=O)[O-])=C(C[N+]3(C)CCCC3)OC[C@H]12)c1csc(N)n1 [No. 2, (6S,7S)-7-[2-(2-aminothiazol-4-yl)-2-methoxyiminoacetamide]-3-(I-methyl-1-pyrrolidinio)methyl-Δ^3-0-2-isocephem-4-carboxylate (syn isomer)] | 0.05 (≈ 0.108 µM) | 0.05 (≈ 0.108 µM) | 0.05 (≈ 0.108 µM) | 0.1 (≈ 0.215 µM) | – | 0.39 (≈ 0.84 µM) | 0.1 (≈ 0.215 µM) | – | 0.1 (≈ 0.215 µM) | – | – | – | – | –
6 | CC(C)O/N=C(\C(=O)N[C@@H]1C(=O)N2C(C(=O)[O-])=C(C[n+]3cccc4c3CCC4)OC[C@H]12)c1csc(N)n1 [No. 12, (6S,7S}-7-[2-(2-amino&hiazol-4-Yl}-2-isopropyloxyiminoacetamide]-3-[(6,7-dihydro-5H-1-pyridinio)]methyl]-Δ^3-0-2-isocephem-4-carboxylate (syn isomer)] | 0.05 (≈ 0.095 µM) | – | ≤ 0.05 | – | – | 0.1 (≈ 0.19 µM) | – | ≤ 0.025 | – | 25 (≈ 47.5 µM) | 0.05 (≈ 0.095 µM) | 0.39 (≈ 0.741 µM) | 0.2 (≈ 0.38 µM) | –
7 | C=CCO/N=C(\C(=O)N[C@@H]1C(=O)N2C(C(=O)[O-])=C(C[n+]3ccc(-c4cnco4)cc3)OC[C@H]12)c1csc(N)n1 [No. 13, (6S,7S}-7-[2-(2-aminothiazol-4-Yl)-2-allyloxyiminoacetamide]-3-[[4-[5-oxazolyl)-1-pyridinio]methyl]-Δ^3-0-2-isocephem-4-carboxylate (syn isomer)] | 0.05 (≈ 0.0907 µM) | – | 0.05 (≈ 0.0907 µM) | – | – | 0.1 (≈ 0.181 µM) | – | ≤ 0.025 | – | 12.5 (≈ 22.7 µM) | 0.1 (≈ 0.181 µM) | 0.2 (≈ 0.363 µM) | 0.2 (≈ 0.363 µM) | –
8 | CO/N=C(\C(=O)N[C@@H]1C(=O)N2C(C(=O)[O-])=C(C[n+]3ccc(SCC#N)cc3)OC[C@H]12)c1csc(N)n1 [No. 6, (6S,7S)-7-[2-(2-aminothiazol-4-yl}-2-methoxyiminoaoetamide]-3-[(4-cyanomethyIthio-1-pyridinio)methyl]-Δ^3-0-2-isocephem-4-carboxylate (syn isomer)] | ≤ 0.025 | – | ≤ 0.025 | ≤ 0.025 | – | 0.78 (≈ 1.47 µM) | 0.05 (≈ 0.0944 µM) | ≤ 0.025 | ≤ 0.025 | – | – | – | – | –
9 | Nc1nc(/C(=N/OC2CCCC2)C(=O)N[C@@H]2C(=O)N3C(C(=O)[O-])=C(C[n+]4ccc(-c5cnco5)cc4)OC[C@H]23)cs1 [No. 9, (6S,7S}-7-[2-(2-aminothiazol-4-yl)-2-cyclopentyloxyiminoacetamide]-3-[[4-(5-oxazolyl)-1-pyridinio]methyl]-Δ^3-0-2-isocephem-4carboxylate (syn isomer)] | 0.1 (≈ 0.173 µM) | – | 0.05 (≈ 0.0863 µM) | – | – | 0.1 (≈ 0.173 µM) | – | ≤ 0.025 | – | 12.5 (≈ 21.6 µM) | 0.05 (≈ 0.0863 µM) | 0.2 (≈ 0.345 µM) | 0.1 (≈ 0.173 µM) | –
10 | CO/N=C(\C(=O)N[C@@H]1C(=O)N2C(C(=O)O)=C(CN3CCc4ccccc4C3)OC[C@H]12)c1csc(N)n1 [No. 3, (6S,7S}-7-[2-(2-aminothiazol-4-yl)-2-methoxyiminoacetamide]-3-(1,2,3,4-tetrahydroisoquinolyn-2-yl}methyl-Δ^3-0-2-isocephem-4-carboxylic acid (syn isomer)] | 0.05 (≈ 0.0976 µM) | – | 0.05 (≈ 0.0976 µM) | 0.1 (≈ 0.195 µM) | – | 0.39 (≈ 0.761 µM) | 0.39 (≈ 0.761 µM) | 0.1 (≈ 0.195 µM) | 0.2 (≈ 0.39 µM) | – | – | – | – | –
11 | C[N+]1(CC2=C(C(=O)[O-])N3C(=O)[C@@H](NC(=O)/C(=N\OC4CCCC4)c4csc(N)n4)[C@H]3CO2)CCCC1 [No. 11, (6S,7S)-7-[2-(2-aminothiazol-4-yl)-2-cyclopentyloxyiminoacetamide]-3-(I-methyl-1-pyrrolidinio]methyl-Δ^3-0-2-isocephem-4-carboxylate (syn isomer)] | 0.1 (≈ 0.193 µM) | – | 0.1 (≈ 0.193 µM) | – | – | 0.2 (≈ 0.386 µM) | – | 0.1 (≈ 0.193 µM) | – | 12.5 (≈ 24.1 µM) | 0.2 (≈ 0.386 µM) | 0.39 (≈ 0.752 µM) | 0.2 (≈ 0.386 µM) | –
12 | CC(C)O/N=C(\C(=O)N[C@@H]1C(=O)N2C(C(=O)[O-])=C(C[n+]3ccc(-c4cnco4)cc3)OC[C@H]12)c1csc(N)n1 [No. 8, (6S,7S)-7-[2-(2-aminothiazol-4-yl}-2-isopropyloxyiminoacetamide]-3-[[4-(5-oxazolyl)-1-pyridinio]methyl]-Δ^3-0-2-isocephem-4-carboxylate (syn isomer)] | 0.05 (≈ 0.0903 µM) | – | ≤ 0.05 | – | – | 0.2 (≈ 0.361 µM) | – | ≤ 0.025 | – | 25 (≈ 45.2 µM) | 0.05 (≈ 0.0903 µM) | 0.2 (≈ 0.361 µM) | – | 0.05 (≈ 0.0903 µM)
13 | CO/N=C(\C(=O)N[C@@H]1C(=O)N2C(C(=O)O)=C(CN3CCCC3)OC[C@H]12)c1csc(N)n1 [No. 1, (6S,7S)-7-[2-(2-aminothiazol-4-yI)-2-methoxyiminoacetamide]-3-(1-pyrolidinyl)methyl-Δ^3-0-2-isocephem-4-carboxylic acid (syn isomer)] | 0.1 (≈ 0.222 µM) | – | 0.1 (≈ 0.222 µM) | 0.2 (≈ 0.444 µM) | – | 1.56 (≈ 3.46 µM) | 0.39 (≈ 0.866 µM) | 0.2 (≈ 0.444 µM) | 0.2 (≈ 0.444 µM) | – | – | – | – | –
